Experimental data: PMC6934184, “Selective DNA-PKcs inhibition extends the therapeutic index of localized radiotherapy and chemotherapy” (The Journal of Clinical Investigation, 2019)

Molecular target: T1, FRK (PTK5) (Homo sapiens, UniProt P42685)
T1 construct: purchased Thermo Fisher Scientific (Life Technologies) SelectScreen
Test: SelectScreen Z'LYTE
Type: biochemical
In short: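 Percent values come from Thermo SelectScreen profiling of NU5455, combining activity and binding assays. CSF1R was run in Z'LYTE format at Km app ATP, and CAMK1 in Adapta format with ATP listed at 10.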

T1 sequence (P42685 whole entry): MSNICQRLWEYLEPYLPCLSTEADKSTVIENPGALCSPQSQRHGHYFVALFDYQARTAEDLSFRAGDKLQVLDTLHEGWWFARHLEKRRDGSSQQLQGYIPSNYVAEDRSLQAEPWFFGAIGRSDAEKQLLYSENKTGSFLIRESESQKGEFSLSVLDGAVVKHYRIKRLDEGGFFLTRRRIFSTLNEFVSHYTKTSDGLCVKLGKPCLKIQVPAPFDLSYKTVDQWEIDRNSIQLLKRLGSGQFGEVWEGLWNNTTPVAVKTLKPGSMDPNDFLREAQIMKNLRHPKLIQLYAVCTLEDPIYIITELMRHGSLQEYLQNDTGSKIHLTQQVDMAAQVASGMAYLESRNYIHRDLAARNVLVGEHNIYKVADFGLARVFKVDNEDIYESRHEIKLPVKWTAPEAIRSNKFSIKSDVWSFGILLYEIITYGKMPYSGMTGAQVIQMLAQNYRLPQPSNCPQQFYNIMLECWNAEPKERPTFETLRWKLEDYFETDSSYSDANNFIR

CN(C(=O)CN1CCOCC1)c1ccc2sc3c(-c4cccc5c(=O)cc(N6CC7CCC(C6)O7)oc45)cccc3c2c1 [NU5455]
inhibition at 1 µM: 3.4%
